Patent US20190343932A1, “NOVEL TREATMENTS” (ENZYMATICA AB, priority 2014, published 2019)
Where a SMILES comes first, the peptide text is derived from it. The star is where a group is joined. pNA = O=[N+]([O-])c1ccc(N*)cc1; Cbz = O=C(OCc1ccccc1)*

Legend:
Assay in all cases: Activity assay to determine kinetic constants
Type in all cases: biochemical
[1] = molecular target: Atlantic cod (Gadus morhua) trypsin I (SEQ ID NO: 1) variant EZA-002, D217S, T218N, S69K (Gadus morhua, UniProt P16049, D236S/S88K/T237N)
From the text: (§1) The following polypeptides were obtained or produced: • (a) Wldtype trypsin I purified from Atlantic cod (“WT-Tryp” or “wildtype”); • (b) Recombinantly expressed wildtype trypsin I of Atlantic cod (SEQ ID NO:1, “R-Tryp”); and • (c) Thirty-eight different mutated versions of trypsin I of Atlantic cod (i.e. mutated sequences of SEQ ID NO:1).
(§2) Polypeptides corresponding to the wildtype amino acid sequence of trypsin I from Atlantic cod and thirty-eight mutated versions thereof were produced using the methods described in Example C.
(§3) Activation of recombinant enzymes (approximately 0.01 mg/ml) was achieved by adding wild type trypsin (0.2 U/ml) at room temperature and incubate for 24 hours. The mixture was made in 20 mM Tris-HCl, 1 mM CaCl2, 50% glycerol, pH 8.0 to a final volume of 200 μl.
(§4) The substrate (Gly-Pro-Arg) was used at concentrations 0.005-0.15 mM in assay buffer containing 1% DMSO. 245 μL of substrate solutions were pipetted into a 96-well plate. The reaction was started by adding 5 μL of the sample mixture (above) and monitored at 410 nm in a SpectraMax plate reader. Kinetic measurement was performed every minute of a continuous 15-min run.

[2] = molecular target: Atlantic cod (Gadus morhua) trypsin I (SEQ ID NO: 1) variant EZA-003, K133T (Gadus morhua, UniProt P16049, K152T)
From the text: as §1, §2, §3, §4

[3] = molecular target: Atlantic cod (Gadus morhua) trypsin I (SEQ ID NO: 1) variant EZA-004, K133L (Gadus morhua, UniProt P16049, K152L)
From the text: as §1, §2, §3, §4

[4] = molecular target: Atlantic cod (Gadus morhua) trypsin I (SEQ ID NO: 1) variant EZA-005, K133V (Gadus morhua, UniProt P16049, K152V)
From the text: as §1, §2, §3, §4

[5] = molecular target: Atlantic cod (Gadus morhua) trypsin I (SEQ ID NO: 1) variant EZA-006, K133E (Gadus morhua, UniProt P16049, K152E)
From the text: as §1, §2, §3, §4

[6] = molecular target: Atlantic cod (Gadus morhua) trypsin I (SEQ ID NO: 1) variant EZA-007, N80T (Gadus morhua, UniProt P16049, N99T)
From the text: as §1, §2, §3, §4

[7] = molecular target: Atlantic cod (Gadus morhua) trypsin I (SEQ ID NO: 1) variant EZA-008, I81L (Gadus morhua, UniProt P16049, I100L)
From the text: as §1, §2, §3, §4

[8] = molecular target: Atlantic cod (Gadus morhua) trypsin I (SEQ ID NO: 1) variant EZA-009, L165G, P202Y (Gadus morhua, UniProt P16049, L184G/P221Y)
From the text: as §1, §2, §3, §4

[9] = molecular target: T1, Atlantic cod (Gadus morhua) trypsin I, recombinant wildtype EZA-001 (no mutations), SEQ ID NO: 1 (Gadus morhua, UniProt P16049)
T1 construct: mature trypsin from MEEDK-zymogen
T1 sequence (P16049 20-241): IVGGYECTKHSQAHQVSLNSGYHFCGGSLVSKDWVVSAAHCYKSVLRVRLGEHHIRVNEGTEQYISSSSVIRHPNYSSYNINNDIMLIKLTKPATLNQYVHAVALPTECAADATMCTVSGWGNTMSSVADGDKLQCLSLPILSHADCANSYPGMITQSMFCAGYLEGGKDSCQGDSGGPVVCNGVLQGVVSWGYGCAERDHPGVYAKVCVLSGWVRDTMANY
From the text: as §1, §2, §3, §4

[10] = molecular target: T2, Atlantic cod (Gadus morhua) trypsin I, wildtype, purified from Atlantic cod (WT-Trp), SEQ ID NO: 1 (Gadus morhua, UniProt P16049); conditions: reference
T2 sequence (P16049 20-241): T1 sequence (P16049 20-241)
From the text: as §1, §2, §3, §4

Atlantic cod (Gadus morhua) trypsin I (SEQ ID NO: 1) variant EZA-002, D217S, T218N, S69K, sequence (P16049 20-241 S88K/D236S/T237N): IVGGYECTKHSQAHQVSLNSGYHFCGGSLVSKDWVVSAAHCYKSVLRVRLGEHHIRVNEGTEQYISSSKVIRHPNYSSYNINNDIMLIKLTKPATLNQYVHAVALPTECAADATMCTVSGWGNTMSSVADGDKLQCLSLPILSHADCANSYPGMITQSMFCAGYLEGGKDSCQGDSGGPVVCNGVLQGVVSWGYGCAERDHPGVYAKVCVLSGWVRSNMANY
Atlantic cod (Gadus morhua) trypsin I (SEQ ID NO: 1) variant EZA-005, K133V, sequence (P16049 20-241 K152V): as the sequence (P16049 20-241 S88K/D236S/T237N) above, with K69S, K133V, S217D, N218T counted along it
Atlantic cod (Gadus morhua) trypsin I (SEQ ID NO: 1) variant EZA-007, N80T, sequence (P16049 20-241 N99T): as the sequence (P16049 20-241 S88K/D236S/T237N) above, with K69S, N80T, S217D, N218T counted along it
Atlantic cod (Gadus morhua) trypsin I (SEQ ID NO: 1) variant EZA-009, L165G, P202Y, sequence (P16049 20-241 L184G/P221Y): as the sequence (P16049 20-241 S88K/D236S/T237N) above, with K69S, L165G, P202Y, S217D, N218T counted along it
Atlantic cod (Gadus morhua) trypsin I (SEQ ID NO: 1) variant EZA-004, K133L, sequence (P16049 20-241 K152L): as the sequence (P16049 20-241 S88K/D236S/T237N) above, with K69S, K133L, S217D, N218T counted along it
Atlantic cod (Gadus morhua) trypsin I (SEQ ID NO: 1) variant EZA-008, I81L, sequence (P16049 20-241 I100L): as the sequence (P16049 20-241 S88K/D236S/T237N) above, with K69S, I81L, S217D, N218T counted along it
Atlantic cod (Gadus morhua) trypsin I (SEQ ID NO: 1) variant EZA-003, K133T, sequence (P16049 20-241 K152T): as the sequence (P16049 20-241 S88K/D236S/T237N) above, with K69S, K133T, S217D, N218T counted along it
Atlantic cod (Gadus morhua) trypsin I (SEQ ID NO: 1) variant EZA-006, K133E, sequence (P16049 20-241 K152E): as the sequence (P16049 20-241 S88K/D236S/T237N) above, with K69S, K133E, S217D, N218T counted along it

SMILES: N=C(N)NCCC[C@H](NC(=O)[C@@H]1CCCN1C(=O)CNC(=O)OCc1ccccc1)C(=O)Nc1ccc([N+](=O)[O-])cc1 [Gly-Pro-Arg, Cbz-Gly-Pro-Arg-p-nitroanilide] (Cbz-Gly-Pro-Arg-pNA)
- Vmax, relative to WT-Trp [1]: 99
- Vmax, relative to WT-Trp [2]: 96
- Vmax, relative to WT-Trp [3]: 82
- Vmax, relative to WT-Trp [4]: 96
- Vmax, relative to WT-Trp [5]: 98
- Vmax, relative to WT-Trp [6]: 99
- Vmax, relative to WT-Trp [7]: 95
- Vmax, relative to WT-Trp [8]: 98
- Vmax, relative to WT-Trp [9]: 99
- Vmax (Kcat), relative to WT-Trp [10]: 100
